# From patent publication US8314150B2, “Kinase protein binding inhibitors” (priority 2008, dated 2012)
# Test system: Panc-1 and Miapaca-2 pancreatic cancer cells
# Experiment: MTT cell viability assay, pancreatic cancer cells
# Format: cell-based, human
# Settings: 72 hours
# Experimental: The 3-(4,5-dimethylthiazol-2-yl)-5-(3-carboxymethoxyphenyl)-2-(4-sulfophenyl)-2H-tetrazolium compound from Promega Viability kit (Madison, Ill.) was added, and the cells were incubated at 37° C. for 1-2 hours. The optical density on 96-plate was analyzed with a microplate reader at 490 nm to determine cell viability. In addition, cells were stained with trypan blue after 24 hours of treatment with Y15 and the percent of cells that stained positive were determined with a hemacytometer. Cell adhesion assay—The poly-L-Lysine or Collagen (5 μg/ml) coated 96-well plates were blocked with the blocking buffer (medium with 0.5% BSA) for 1 hour at 37 C. […] Then 2% SDS was added to the dried plated and OD at 590 nm was measured for detecting cell adhesion. […] Protein concentrations were determined using a Bio-Rad Kit. The boiled samples were loaded on Ready SDS-10% PAGE gels (Bio Rad, Inc) and used for Western blot analysis with the protein-specific antibody. […] Detachment Assay—Cells were plated with and without inhibitors for 24 hours, and detached and attached cells were counted in a hemocytometer. We calculated the percent of detachment by dividing the number of detached cells by the total number of cells. The percent of detached cells was calculated in three independent experiments. […] For each experiment 300 cells per treatment were counted. […]
structure (smiles),measurement,value
"Cl.Cl.Cl.Cl.Nc1cc(N)c(N)cc1N [Y15, 1,2,4,5-benzenetetraamine tetrahydrochloride]",dose from which cell viability was inhibited,1 µM
